Source: patent US6872749B2, “Method for supplying bioavailable methionine to a cow” (Adisseo Ireland Limited, priority 1998, dated 2005)
Where two headings read alike, the source gives them in different places.

How the values were obtained:
[1] = dose of methionine equivalent to 50 g per day per cow; cited from earlier work
[2] = incubation for six hours in rumen juices; cited from earlier work
in vivo = conditions: bovine
Protocol: The kinetics of availability of methionine and HMB in the bloodstream were determined for the isopropyl ester of the hydroxy analogue of methionine and compared with the hydroxy analogue of methionine (a compound not according to the present invention).
The procedure of Example 2 was repeated wherein samples of the isopropyl ester of the hydroxy analogue (69 g) and the hydroxy analogue (Alimet™-57 g) were given to four cows.

[3] = bovine, in vivo
Protocol: Spot doses of the following amounts of the esters prepared as detailed above, equating to 50 g of methionine equivalent, were given to 2 cows in the manner described in Example 2(b1) above. • methyl ester of HMB: 64.8 g • ethyl ester of HMB: 74.8 g • isopropyl ester of HMB: 80.5 g • n-butyl ester of HMB: 96 g • cyclohexyl ester of HMB: 97.5 g • see butyl ester of HMB: 79 g The concentration of methionine and HMB was measured over a period of 27 hours.
56 g of methyl methioninate and 72 g of n-propyl methioninate (providing an equivalent 50 g of DL-methionine), prepared as detailed above, were supplied to two cows as a spot dose at 7.45 am just before the morning feed.
The ration given to the cows was distributed as two equal meals at 08.00 hours and 16.00 hours comprised 7 kg of hay and 2 kg concentrate.
Samples of blood were taken by jugular vein puncture 09.00, 10.00, 11.00, 13.00 and 15.00 hours on the day where the ester was given to the animal and at 09.00, 12.00 and 15.00 hours on the day before and two days after supply.
The plasma from each sample was isolated from the blood samples by centrifuging the blood at 3000 revs per minute for 10 minutes. The samples were stored in a freezer. The assay for methionine was carried out according to the standard procedure of Moore and Stein.
The results were plotted using the conventional AUC method wherein the areas under the curves are calculated to obtain the bioavailability values for each ester.

cows = assay: Milk production of dairy cows given ester supplement (Examples 4 and 6); type: in vivo, cow; conditions: for Butter Content of Milk / Daily amount of milk / Protein content of Milk: supplement providing 12.5 g of bioavailable methionine per animal per day, 16 cows; for Effect of addition to the diet on milk composition: versus control, Table 5
Text: The isopropyl ester of the hydroxy analogue of methionine was given to 16 cows over a period of 8 weeks. Each cow was given daily corn silage and a supplement to cover 100% of requirement and a 115% PDIE (protein digestible in the intestine) requirement.
The supplements were given to the cows according to the following schedule: […]

[4] = Bioavailability of esters of methionine after spot dose to cows (Example 2); type: in vivo, cow; conditions: bovine, in vivo
Protocol: The bioavailability of the esters was evaluated.
The samples were stored in a freezer.
The procedure of (b1) was repeated using 72 g of methionine ethyl ester hydrochloride, prepared as detailed above
• cyclohexyl methioninate: 122 g • methionine methyl ester hydrochloride: 73 g • sec butyl methioninate: 72 g

CSCCC(O)C(=O)O (centres unmarked) [HMB, 2-hydroxy-4-(methylthio) butanoic acid]
Bioavailability [1]: 3% | amount remaining after incubation in rumen juices [2]: 85% | Blood plasma HMB concentration (in vivo; 0 min): 0.00 mg/100 g of plasma | Blood plasma HMB concentration (in vivo; 10 min): 0.00 mg/100 g of plasma | Blood plasma HMB concentration (in vivo; 20 min): 0.00 mg/100 g of plasma | Blood plasma HMB concentration (in vivo; 30 min): 0.00 mg/100 g of plasma | Blood plasma HMB concentration (in vivo; 40 min): 0.00 mg/100 g of plasma | Blood plasma HMB concentration (in vivo; 50 min): 0.00 mg/100 g of plasma | Blood plasma HMB concentration (in vivo; 60 min): 0.00 mg/100 g of plasma | Blood plasma HMB concentration (in vivo; 75 min): 0.00 mg/100 g of plasma | Blood plasma HMB concentration (in vivo; 90 min): 0.00 mg/100 g of plasma | concentration at 0 min (in vivo; Blood plasma HMB concentration): 0 ng/g | concentration at 10 min (in vivo; Blood plasma HMB concentration): 0 ng/g | concentration at 20 min (in vivo; Blood plasma HMB concentration): 0 ng/g | concentration at 30 min (in vivo; Blood plasma HMB concentration): 0 ng/g | concentration at 40 min (in vivo; Blood plasma HMB concentration): 0 ng/g | concentration at 50 min (in vivo; Blood plasma HMB concentration): 0 ng/g | concentration at 60 min (in vivo; Blood plasma HMB concentration): 0 ng/g | concentration at 75 min (in vivo; Blood plasma HMB concentration): 0 ng/g | concentration at 90 min (in vivo; Blood plasma HMB concentration): 0 ng/g

COC(=O)C(O)CCSC (centres unmarked) [Methyl ester of HMB, methyl ester of HMB]
amount remaining after incubation in rumen juices [2]: 1.8% | Bioavailability [3]: 39%

CSCCC(O)C(=O)OC(C)C (centres unmarked) [Isopropyl ester of HMB, isopropyl ester of the hydroxy analogue of methionine]
Blood plasma HMB concentration (in vivo): 0.00 mg/100 g of plasma | Speed of providing methionine and HMB to the bloodstream (in vivo): much quicker than HMB itself | Butter Content of Milk (cows): 44.3 g/kg | Daily amount of milk (cows): 32.3 kg/cow | Protein content of Milk (cows): 30.8 g/kg | Effect of addition to the diet on milk composition (cows): higher fat content and higher protein content | Bioavailability [3]: 59% | appearance of the bioavailability peak in the blood following administration [3]: relatively quickly | bioavailability of methionine [3]: more than 50% | methionine equivalent provided to the bloodstream by absorption across the rumen wall [3]: at least 50%

CSCC[C@H](N)C(=O)O [methionine]
amount remaining after incubation in rumen juices [2]: 34%

CCOC(=O)C(O)CCSC (centres unmarked) [ethyl ester of HMB]
amount remaining after incubation in rumen juices [2]: 3% | Bioavailability [3]: 35%

CSCC[C@H](N)C(=O)OC(C)C [Isopropyl methioninate, isopropyl methioninate]
[met] methionine concentration in blood plasma ([4]; 0 h): 0.33 mg/100 g of blood plasma | [met] methionine concentration in blood plasma ([4]; 1 h): 3.62 mg/100 g of blood plasma | [met] methionine concentration in blood plasma ([4]; 2 h): 3.21 mg/100 g of blood plasma | [met] methionine concentration in blood plasma ([4]; 3 h): 2.86 mg/100 g of blood plasma | [met] methionine concentration in blood plasma ([4]; 5 h): 2.22 mg/100 g of blood plasma | [met] methionine concentration in blood plasma ([4]; 7 h): 1.93 mg/100 g of blood plasma | [met] methionine concentration in blood plasma ([4]; 28 h): 0.35 mg/100 g of blood plasma | Bioavailability % ([4]; po): 44% | Butter Content of Milk (cows): 43.3 g/kg | Daily amount of milk (cows): 32.7 kg/cow | Protein content of Milk (cows): 30.6 g/kg | Effect of addition to the diet on milk composition (cows): higher fat content and higher protein content
